From PubChem BioAssay AID1996
≈ marks a conversion by molar mass, not a printed value.

Conditions: buffer; pH 7.4; 200.0 µM

SMILES | solubility kinetic [µg/mL]
Cc1ccc(NC(=O)CN2CCOCC2)cc1Cl | > 40.3
O=C(OCC(=O)N1CCOCC1)c1ccccc1OCc1ccccc1Cl | 54.9 (≈ 141 µM)
COc1ccc(C)cc1NC(=O)COC(=O)c1ccc([N+](=O)[O-])o1 | 3.4 (≈ 10.2 µM)
Cc1cc(C)c2ccc3c(C)c(C)n(C)c3c2n1 | < 0.3
Clc1ccc(-c2nc(N3CCOCC3)nc3ccccc23)cc1 | < 0.2
O=C(COc1ccccc1[N+](=O)[O-])NCC1COc2ccccc2O1 (configuration not stated) | 24.2 (≈ 70.3 µM)
COc1ccc(OC)c(NC(=O)CC(NC(C)=O)c2ccccc2)c1 (configuration not stated) | 45.3 (≈ 132 µM)
O=C(Cc1cccc(F)c1)Nc1ccc2c(c1)CCC2 | 1.2 (≈ 4.46 µM)
CCCCc1nnc(SCC(=O)Nc2nccs2)n1C | > 46.7
Cc1ccc(C(=O)OCC(=O)NC2CCCC2)cc1 | 22.5 (≈ 86.1 µM)
Cc1ccc(O)c(CNc2nccs2)c1 | 7.4 (≈ 33.6 µM)
CC(OC(=O)CCOc1ccccc1)C(=O)NC1CC1 (configuration not stated) | > 41.6
COC(=O)CN1C(=O)N/C(=C/c2cc3c(cc2OC)OCO3)C1=O | 6.3 (≈ 18.8 µM)
CSc1nc2ccc(NC(=O)c3ccc(=O)[nH]c3)cc2s1 | 16.1 (≈ 50.7 µM)
CCOC(=O)C1CCN(C(=O)c2cccnc2Oc2ccccc2)CC1 | 50.9 (≈ 144 µM)
CC(OC(=O)c1ccco1)C(=O)NC1CCCC1 (configuration not stated) | > 37.7
Cc1nc([N+](=O)[O-])cn1CC(=O)Nc1ccc([N+](=O)[O-])cc1 | 1.3 (≈ 4.26 µM)
COc1ccc(C(=O)Nc2ccccc2C(=O)Nc2ccc(C(=O)O)cc2)cc1 | > 58.6
COc1ccc(CNC(=O)COC(=O)c2cc3ccccc3o2)cc1 | 5.4 (≈ 15.9 µM)
N#C/C(=C\c1cccs1)C(=O)Nc1ccccn1 | 12.8 (≈ 50.1 µM)
COc1ccccc1C(=O)CN1C(=O)NC2(CCCc3ccccc32)C1=O (configuration not stated) | 8.4 (≈ 23.1 µM)
COc1nc(Nc2cccc(F)c2)nc(OC)n1 | 12.8 (≈ 51.2 µM)
O=C(CNC(=O)c1ccccc1)Oc1cccc(Cl)c1 | > 43.5
Cc1ccc(S(=O)(=O)C2(C(=O)NCCc3ccccc3)CC2)cc1 | 50.5 (≈ 147 µM)
O=C1CCCC2=C1C(c1ccsc1)CC(=O)N2c1ccccc1F (configuration not stated) | > 51.2
CCCOc1ncnc2c1[nH]c1ccc(OC)cc12 | 0.5 (≈ 1.94 µM)
Cn1ccc(C(=O)OCC(=O)Nc2ccccc2Cl)n1 | > 44.1
COc1ccc(-c2noc(-c3ccc(Br)o3)n2)cc1 | < 0.3

SMILES | solubility kinetic [µg/mL]
O=C(NCCc1ccccc1)c1ccc2c(c1)OCCCO2 | 39.8 (≈ 134 µM)
CCOC(=O)C1CCN(C(=O)CC2(CC(=O)O)CCCC2)CC1 | 45.5 (≈ 140 µM)
Nc1nc(NCCc2ccccc2)nc(NCc2ccccc2)c1[N+](=O)[O-] | 0.2 (≈ 0.549 µM)
COC(=O)c1c(C)oc(C)c1S(=O)(=O)N1CCOCC1 | 40.9 (≈ 135 µM)
CNC(=S)Nc1cccc(S(=O)(=O)NC2=NCCC2)c1 | 45.7 (≈ 146 µM)
O=C(Nc1ccncc1)c1cccc2ccccc12 | > 37.2
O=C(O)c1cc(S(=O)(=O)NCCCN2CCCC2=O)ccc1Cl | > 54.1
Cc1ccc(C(=O)NC(=S)N(C)Cc2ccccc2)cc1 | 2 (≈ 6.7 µM)
CSc1cccc(NC(N)=S)c1 | 29.2 (≈ 147 µM)
CC1(C)Cc2c(c(-c3ccccc3)nc3sc4c(=O)[nH]c(=S)[nH]c4c23)CO1 | 10.5 (≈ 26.5 µM)
N#C/C(=C\c1ccccn1)c1ccccn1 | > 31.1
COc1ccc(NC(=O)c2ccccc2Oc2ccccc2)cc1 | < 0.7
COc1cc(C#N)ccc1OCC(=O)NCCC1=CCCCC1 | 3.7 (≈ 11.8 µM)
CC(C)(C)C(=O)N1CCN(C(c2ccccc2)c2ccccc2)CC1 | 28.3 (≈ 84.1 µM)
CCOC(=O)c1nc(Nc2ccc(OC)cc2)c2ccccc2n1 | > 48.5
CN(C1CCCCC1)S(=O)(=O)c1ccc(SCC(=O)C(C)(C)C)nc1 | 3.2 (≈ 8.32 µM)
CCCCNC(=S)N1CCN(C)CC1.O=C(O)C(=O)O | > 45.8
CC(=O)Nc1ccc(NC(=O)c2ccccc2Nc2ccccc2)cc1 | 4.4 (≈ 12.7 µM)
CC(c1ccccc1)n1cnc2ccccc2c1=O (configuration not stated) | > 37.5
Cc1cc(C)nc(S/C=C/C(=O)c2ccc(F)cc2)n1 | < 0.3
CCC(=O)Nc1ccc(C(=O)COC(=O)Cc2ccsc2)cc1 | 15.9 (≈ 48 µM)
Cc1ccc(C)c(N2CCN(CC3CCCCC3)CC2)c1 | 2.3 (≈ 8.03 µM)
c1ccc(CSc2cc3ccccc3[nH]2)cc1 | 2.8 (≈ 11.7 µM)
Cc1ccc2oc(C(=O)Nc3cc(C)on3)c(C)c2c1 | 1.2 (≈ 4.44 µM)
Cc1cc(N2CCC(C)CC2)nc(-c2ccccc2O)n1 | < 0.2
O=C(O)C1CCCCC1C(=O)NCc1ccc(Cl)c(Cl)c1 (configuration not stated) | 35.6 (≈ 108 µM)
COC(=O)CCCN1C(=O)c2cccc3cccc(c23)C1=O | 43.6 (≈ 147 µM)

Results, then the compound that gave them:

solubility kinetic [µg/mL] | SMILES
> 29.8 | CN(C)NC(=O)c1cccc(Cl)c1
36.1 (≈ 124 µM) | CC(C)CCC1(C)NC(=O)N(CC(=O)c2ccc[nH]2)C1=O (configuration not stated)
> 44.8 | CCN(CC)C(=O)Cn1cc(C(=O)C2CC2)c2ccccc21
25.2 (≈ 75.6 µM) | Brc1cccc(CN2CCN(c3ncccn3)CC2)c1
1.5 (≈ 6.84 µM) | c1ccc(Nc2cccc3ccccc23)cc1
> 35.5 | Cc1cc(=O)n(-c2ccc(Cl)cc2)c(=O)[nH]1
> 49.7 | CC1CCCN(C(=O)CSc2nnc(-c3ccncc3)n2C)C1 (configuration not stated)
> 42.1 | CC(Cc1c[nH]c2ccccc12)NC(=O)OCCCl (configuration not stated)
39.7 (≈ 136 µM) | COc1cnc(-c2ccccn2)nc1N(C)c1ccccc1
2.4 (≈ 8.81 µM) | N#Cc1c(-c2cccnc2)cc(-c2ccccc2)nc1N
7.7 (≈ 23.1 µM) | CC(=O)OC1CC(c2cc(C(C)(C)C)c(O)c(C(C)(C)C)c2)=NO1 (configuration not stated)
> 40.2 | COc1ccc(OCCn2cnc3ccccc32)cc1
33.4 (≈ 149 µM) | CN(C)c1ccc2nsnc2c1[N+](=O)[O-]
0.6 (≈ 1.71 µM) | Cc1cccc(OCC(=O)Nc2ccc(NC(=O)c3ccco3)cc2)c1
7.8 (≈ 17.7 µM) | CCOC(=O)Nc1ccc(N2CCOCC2)c(S(=O)(=O)Nc2ccc(Cl)cc2)c1
1.3 (≈ 4.01 µM) | O=S(=O)(c1cccc2cccnc12)N1CCCc2ccccc21
> 51.1 | CCOc1ccccc1C(=O)NCC(=O)N(C)Cc1ccccc1C
> 51.5 | CCN(CC)CCCNc1cc(C)nc2cc(-c3cccs3)nn12
> 45.4 | Cc1noc(C)c1COc1cccc(C(=O)NC(C)(C)C)c1
40.1 (≈ 133 µM) | COc1ccc(OCC(O)CNC(=O)c2ccccc2)cc1 (configuration not stated)
15.9 (≈ 61.6 µM) | CCOC(=O)N1CCc2[nH]c3ccc(C)cc3c2C1
< 0.2 | CCOc1ccccc1NC(=O)Nc1ccccn1
> 45.3 | CCN(CC)S(=O)(=O)c1ccc2nc(CCl)[nH]c2c1

solubility kinetic [µg/mL] | SMILES
42.9 (≈ 138 µM) | Cc1ccc(NC(=O)CN2CCCC2c2cccn2C)cc1C (configuration not stated)
35.7 (≈ 130 µM) | Cc1cccc(S(=O)(=O)NCCc2ccccc2)c1
39.3 (≈ 101 µM) | COc1ccc(CCNC(=O)CCC(=O)NC2CCCC(C)C2C)cc1OC (configuration not stated)
2.3 (≈ 7.34 µM) | Oc1ccc(Nc2nc(-c3ccccc3)nc3ccccc23)cc1
15.3 (≈ 51.3 µM) | FC(F)Oc1ccc(N=C2SCC3CCCCN23)cc1 (configuration not stated)
2.2 (≈ 7.07 µM) | Cc1cc(C(=O)Nc2ccc(Br)cn2)sc1C
> 55 | CN(Cc1ccccc1)C(=O)COC(=O)CN1C(=O)c2ccccc2C1=O
> 40.1 | CN1C(=O)C(CC(=O)NC2CCCCC2)N(C)C1=O (configuration not stated)
> 43.8 | CC(C)N(C)S(=O)(=O)c1ccc(Cl)c(C(=O)O)c1
> 59.3 | CC(C)NC(=O)N1CCN(c2ccncc2S(=O)(=O)N2CCCCC2)CC1
4.5 (≈ 11.7 µM) | O=C(Nc1cccc(Cl)c1)Nc1sccc1-c1nc2ccccc2s1
4.1 (≈ 14.4 µM) | Cc1cccc(NC(=S)NCCc2ccccc2)c1C
> 48.8 | Cc1ccc(/C(O)=C2\C(=O)C(=O)N(C)C2c2ccc(F)cc2)cc1 (configuration not stated)
> 60.1 | Cc1c(NC(=S)NC(=O)c2ccc(Cl)cc2)c(=O)n(-c2ccccc2)n1C
> 44.2 | Cl.O=S(=O)(c1ccc(F)cc1)N1CCCNCC1
0.7 (≈ 2.08 µM) | COc1ccccc1C(=O)Nc1ccc(NC(=O)c2ccco2)cn1
17.7 (≈ 56.7 µM) | Cc1ccc(N2C(=O)C3C4C=CC(CC4)C3C2=O)c([N+](=O)[O-])c1 (configuration not stated)
0.4 (≈ 1.31 µM) | CC(=O)c1ccc(NC(=O)Nc2cccc3ccccc23)cc1
> 38 | CC(=O)NC1=NN(C(C)=O)C(c2ccco2)S1 (configuration not stated)
10.5 (≈ 33.2 µM) | c1ccc2c(c1)CCc1c-2nc2ccccc2c1N1CCOCC1
5.9 (≈ 20 µM) | COc1cc(/C=C(\C#N)C(=O)Nc2ccccn2)ccc1O
< 0.4 | Cc1c(Br)ccc(NC(=O)COc2ccccc2C(N)=O)c1C
1 (≈ 3.58 µM) | CC(=O)c1ccc(NC(=O)c2cc3ccccc3o2)cc1

solubility kinetic [µg/mL] | SMILES
> 37.4 | CC1(C)c2cc(O)ccc2OC1N1CCOCC1 (configuration not stated)
> 32.7 | CC(C)c1ccccc1-n1cc[nH]c1=S
> 46.6 | NC(=O)c1ccccc1OCC(=O)N1CCCc2ccccc21
< 0.3 | O=C(Nc1ccc(Cl)cc1)c1cc(-c2cccs2)on1
> 46.6 | O=C(N/N=C/c1ccc(N2CCOCC2)cc1)c1ccncc1
11.2 (≈ 32.1 µM) | C=CCOc1ccc(C2NC(=S)NC3=C2CCc2ccccc23)cc1 (configuration not stated)
35.3 (≈ 131 µM) | CC(=O)C1=C(C)NC(C)=C(C(C)=O)C1c1ccccc1
< 0.4 | O=C(CN1CCOCC1)Nc1scc2c1c(=O)oc1ccccc12
41 (≈ 124 µM) | CN(C(=O)CSc1nc(N)cc(N)n1)C1CCS(=O)(=O)C1 (configuration not stated)
3.1 (≈ 9.96 µM) | CCn1c(=O)c2c(nc3n2CCN3c2ccccc2)n(C)c1=O
30.2 (≈ 137 µM) | NC(=S)Nc1cc(Cl)ccc1Cl
< 0.2 | Cn1c2c(c3cc([N+](=O)[O-])ccc31)CCCC2
> 53.2 | Cc1ccc(C(=O)N/C(=C\c2ccco2)C(=O)N2CCOCC2)cc1C
> 43.4 | CC1Cc2ccccc2N1C(=O)c1ccc2nccnc2c1 (configuration not stated)
30.2 (≈ 108 µM) | O=C(NC(=O)N1CCCc2ccccc21)c1ccccc1
22.4 | COc1cccc(-c2nc(CCl)cs2)c1.Cl
5.3 (≈ 18.7 µM) | COc1ccc(Oc2ccc(C(F)(F)F)cc2N)cc1
21.9 (≈ 125 µM) | Cn1c(N)nc2ccccc2c1=O
18.4 (≈ 58.7 µM) | CN(Cc1nc(CCc2ccccc2)no1)Cc1cccs1
> 49.7 | COC(=O)c1[nH]c2ccccc2c1NC(=O)C(C)N1CCOCC1 (configuration not stated)
< 0.7 | CC(=O)c1ccc(OCCOc2ccc(Cl)c3cccnc23)cc1
